Source: patent US5179082A, “Method for blocking platelet adhesion to collagen” (Merck & Co., Inc., priority 1991, dated 1993)
Read-outs that look alike come from different tables or passages of the source. Positions of bridges follow the written chain, without caps; N, C: chain ends. No end group written: not given here.

How the values were obtained:
[1] = molecular target: fibrinogen receptor glycoprotein IIb/IIIa
[2] = system: platelet adhesion to fibrinogen; test: Inhibition of platelet adhesion to fibrinogen-coated plates; assay type: cell-based; set-up: Percent Inhibition of Adhesion, Fibrinogen, Extent: dose or concentration left out as unconfirmed; conditions: for IC50: fibrinogen-coated plates
Procedure: (§1) Polystyrene 96-well microtiter plates (Costar, Cambridge, MA) are coated with […] per well of […] collagen dissolved in 5 mM acetic acid for 1 hour at room temperature followed by blocking of the non-specific cell binding sites by addition of […] of 10 mg/ml heat-denatured BSA for 1 hour. Control wells are coated with BSA only. The wells are rinsed three times with HEPES buffered saline (HBS) containing 20 mM HEPES, pH 7.4, 0.14 M NaCl, and 2 mM MgCl2. […] of washed platelets are incubated with various concentrations of polypeptide I or buffer as a control for 5 minutes at room temperature and then added to each collagen coated well and incubated at room temperature for 45 minutes. Nonadherent platelets are removed by aspiration, and the wells are rinsed three times with […] of HBS. The number of adhered platelets is determined by protein assay, using the BCA reagent and measuring the absorbance of each well at […].
(§2) Sequence ID Nos. I, II, III, IV and V were evaluated for their ability to block platelet adhesion to collagen using the assay described in Example 2 to determine inhibition of platelet adhesion to collagen. An assay similar to the assay described in Example 2, with the exception that plates are coated with fibrinogen rather than collagen, for determining inhibition of platelet binding to fibrinogen.

[3] = system: platelet adhesion to collagen; test: Inhibition of platelet adhesion to collagen-coated microtiter wells; assay type: cell-based
Procedure: as §1, §2

[4] = system: ADP-stimulated platelet aggregation; test: Inhibition of ADP-stimulated platelet aggregation; assay type: cell-based; conditions: Table 1
[5] = Preliminary in vivo antithrombotic studies

Substance | Percent inhibition of adhesion to collagen, Extent (washed platelets) [%] | Percent inhibition of adhesion to fibrinogen, Extent [1] [%] | Percent Inhibition of Adhesion, Fibrinogen, Extent ([2]; Table 1, concentration not given) [%] | IC50 ([2]; Table 1) [µM] | Inhibition of platelet adhesion to collagen (in words) [3] | Percent Inhibition of Adhesion, Collagen, Extent ([3]; Table 1) [%] | Decrease of control A562 values (adhered platelets) ([3]; concentration dependent, control A562 0.3 to 1.0 O.D.) | IC50 [4] [µM] | Antithrombotic effect in vivo [5] | Percent Inhibition of Adhesion, Fibrinogen, Extent [2] [%] | IC50 ([3]; Table 1, collagen-coated wells, washed platelets) [µM] | Specificity for platelet adhesion to collagen (versus fibrinogen) ([3]; comparison of Table 1 values)
polypeptide I (Sequence ID No. 1), synthetic echistatin | 50 | 95 | – | – | – | – | – | – | – | – | – | –
H-ECESGPCCRNCKFLKEGTICKRARGDDMDDYCNGKTCDCPRNPHKGPAT-OH (disulfide 2-11, 7-32, 8-37, 20-39 (inferred)) [Polypeptide I, echistatin] | – | – | 95 | 0.27 | inhibit platelet adhesion to collagen | 50 | up to 50% | 0.03 | very effective antithrombotic agent | – | – | –
Polypeptide V: NH2 (Ch) Ala Arg Gly Asp (Cy) Z, Z = NH2; 39 amino acids, terminal amino group at Cys 39 (ECESGPCCRNCKFLKEGTICKRARGDDMDDYCNGKTCDC-NH2; not fully specified (bridges); also: terminal modifications Ch, Cy, terminal amino group at Cys 39) | – | – | – | > 8 | – | 58 | – | 0.8 | – | 55 | 0.53 | most specific for platelet adhesion to collagen
